Laboratory results published in BigSolDB 2.1.

CC1=C[C@H](O)CC(C)(C)[C@H]1/C=C/C(C)=C/C=C/C(C)=C/C=C/C=C(C)/C=C/C=C(C)/C=C/C1=C(C)C[C@@H](O)CC1(C)C
solubility (mole fraction)
Conditions | 278.15 K | 283.15 K | 288.15 K | 293.15 K | 298.15 K | 303.15 K | 308.15 K | 313.15 K | 318.15 K | 323.15 K
in ethanol | 1.75e-05 | 1.96e-05 | 2.27e-05 | 2.63e-05 | 3.16e-05 | 3.75e-05 | 4.48e-05 | 5.32e-05 | 6.42e-05 | 7.72e-05
in ethylene glycol | 2.68e-07 | 3.03e-07 | 3.48e-07 | 3.89e-07 | 4.43e-07 | 5.17e-07 | 6.12e-07 | 7.13e-07 | 8.45e-07 | 9.61e-07
in isopropanol | 9.74e-07 | 1.03e-06 | 1.1e-06 | 1.18e-06 | 1.27e-06 | 1.39e-06 | 1.51e-06 | 1.67e-06 | 1.86e-06 | 2.13e-06
in methanol | 2.31e-05 | 2.84e-05 | 3.77e-05 | 4.91e-05 | 6.72e-05 | 8.41e-05 | 0.000107 | 0.000134 | 0.000166 | 0.000207
